Source: ChEMBL document CHEMBL1147510 (Bioorg Med Chem Lett, 2004)
Calls of active or inactive are those of the source. The rule behind the calls is not given here.

Experiments:
[1] = molecular target: T1, 5-hydroxytryptamine receptor 3A (Rattus norvegicus) (UniProt P35563); test: Ability to block serotonin (30 uM)-evoked responses at rat 5HT3-alpha receptor expressed in xenopus oocytes; assay type: functional, cell-based; details: Oocyte
T1 sequence (whole entry): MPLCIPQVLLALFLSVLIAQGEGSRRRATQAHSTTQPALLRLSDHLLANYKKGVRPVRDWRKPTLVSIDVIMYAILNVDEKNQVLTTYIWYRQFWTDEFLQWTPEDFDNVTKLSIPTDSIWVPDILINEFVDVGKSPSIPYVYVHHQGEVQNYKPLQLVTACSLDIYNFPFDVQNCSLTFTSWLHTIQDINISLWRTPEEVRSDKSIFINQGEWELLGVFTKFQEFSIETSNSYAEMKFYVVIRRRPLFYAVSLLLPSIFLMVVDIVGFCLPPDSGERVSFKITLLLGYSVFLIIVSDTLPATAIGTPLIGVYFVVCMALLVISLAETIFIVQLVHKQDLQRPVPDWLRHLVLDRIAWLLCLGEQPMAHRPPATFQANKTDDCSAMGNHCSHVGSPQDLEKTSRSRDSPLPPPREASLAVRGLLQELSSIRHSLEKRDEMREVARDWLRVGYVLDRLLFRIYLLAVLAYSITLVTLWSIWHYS

[2] = molecular target: T2, Neuronal acetylcholine receptor; alpha3/beta4 (Homo sapiens, UniProt P30926+P32297); test: Activation responses to that evoked by ACh at human alpha3-beta4 receptor expressed in xenopus oocytes at 1 mM; assay type: cell-based; details: Oocyte
T2 sequence (P30926 whole entry): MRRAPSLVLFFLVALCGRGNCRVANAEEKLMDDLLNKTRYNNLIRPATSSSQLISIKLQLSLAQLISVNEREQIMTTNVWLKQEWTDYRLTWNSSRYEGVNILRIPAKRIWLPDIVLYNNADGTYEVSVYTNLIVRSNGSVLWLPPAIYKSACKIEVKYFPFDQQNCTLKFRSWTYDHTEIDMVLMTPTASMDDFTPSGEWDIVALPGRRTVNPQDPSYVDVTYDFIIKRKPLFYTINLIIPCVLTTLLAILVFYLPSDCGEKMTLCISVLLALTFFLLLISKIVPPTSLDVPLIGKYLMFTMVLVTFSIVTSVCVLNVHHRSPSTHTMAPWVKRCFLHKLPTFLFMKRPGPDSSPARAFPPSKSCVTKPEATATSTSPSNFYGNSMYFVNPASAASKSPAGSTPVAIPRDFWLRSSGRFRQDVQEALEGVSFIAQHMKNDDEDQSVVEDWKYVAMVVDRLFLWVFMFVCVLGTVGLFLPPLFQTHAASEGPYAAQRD
T2 sequence (P32297 whole entry): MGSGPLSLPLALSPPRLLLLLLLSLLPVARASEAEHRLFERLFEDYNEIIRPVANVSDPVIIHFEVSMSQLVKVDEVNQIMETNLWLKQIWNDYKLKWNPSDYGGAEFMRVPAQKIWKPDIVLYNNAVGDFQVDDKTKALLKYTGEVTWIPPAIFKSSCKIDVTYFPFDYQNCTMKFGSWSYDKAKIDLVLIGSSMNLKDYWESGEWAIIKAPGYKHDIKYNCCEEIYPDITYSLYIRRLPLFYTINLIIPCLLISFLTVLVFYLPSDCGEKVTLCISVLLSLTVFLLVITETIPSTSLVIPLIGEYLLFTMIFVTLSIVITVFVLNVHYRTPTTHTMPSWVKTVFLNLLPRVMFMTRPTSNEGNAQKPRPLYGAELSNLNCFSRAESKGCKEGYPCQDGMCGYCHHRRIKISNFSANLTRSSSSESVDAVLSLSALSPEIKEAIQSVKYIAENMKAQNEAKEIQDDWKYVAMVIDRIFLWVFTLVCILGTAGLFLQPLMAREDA

[3] = molecular target: T2, Neuronal acetylcholine receptor; alpha3/beta4; test: Antagonism of ACh-evoked responses at human Nicotinic acetylcholine receptor alpha3-beta4 expressed in xenopus oocytes; assay type: functional, cell-based, Oocyte
[4] = molecular target: T3, Neuronal acetylcholine receptor subunit alpha-7 (Rattus norvegicus, UniProt Q05941); test: Activation responses to that evoked by ACh at human Nicotinic acetylcholine receptor alpha-7 expressed in xenopus oocytes; assay type: cell-based, Oocyte
T3 sequence (Q05941 whole entry): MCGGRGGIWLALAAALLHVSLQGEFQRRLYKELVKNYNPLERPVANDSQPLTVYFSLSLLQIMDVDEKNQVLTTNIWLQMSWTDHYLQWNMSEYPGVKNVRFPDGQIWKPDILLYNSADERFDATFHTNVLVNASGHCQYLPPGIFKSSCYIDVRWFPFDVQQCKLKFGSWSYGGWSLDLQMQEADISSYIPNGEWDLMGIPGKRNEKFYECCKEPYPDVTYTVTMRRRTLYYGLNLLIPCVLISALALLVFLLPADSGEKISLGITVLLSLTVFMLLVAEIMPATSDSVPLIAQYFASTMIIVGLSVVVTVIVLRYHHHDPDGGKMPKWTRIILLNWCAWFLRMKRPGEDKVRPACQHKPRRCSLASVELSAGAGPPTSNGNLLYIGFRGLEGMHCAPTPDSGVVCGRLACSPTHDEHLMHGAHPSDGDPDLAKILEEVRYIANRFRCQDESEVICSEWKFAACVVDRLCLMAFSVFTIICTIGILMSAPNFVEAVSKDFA

Oocyte [5] = test: Activation responses to that evoked by ACh at human Nicotinic acetylcholine receptor alpha-3-beta-2-alpha-5 expressed in xenopus oocytes at 100 uM; assay type: cell-based
[6] = molecular target: T4, Neuronal acetylcholine receptor; alpha3/beta2 (Homo sapiens) (UniProt P17787+P32297); test: Activation responses to that evoked by Nicotinic acetylcholine receptor alpha3-beta2 expressed in xenopus oocytes at 1 mM; assay type: cell-based; details: Oocyte
[7] = molecular target: T4, Neuronal acetylcholine receptor; alpha3/beta2 (Homo sapiens); test: Activation responses to that evoked by Nicotinic acetylcholine receptor alpha3-beta2 expressed in xenopus oocytes at 300 uM; assay type: cell-based; details: Oocyte
[8] = molecular target: T5, Neuronal acetylcholine receptor; alpha4/beta2 (Homo sapiens, UniProt P17787+P43681); test: Activation responses to that evoked by ACh at human Nicotinic acetylcholine receptor alpha4-beta2; assay type: protein-complex assay
T5 sequence (P17787 whole entry): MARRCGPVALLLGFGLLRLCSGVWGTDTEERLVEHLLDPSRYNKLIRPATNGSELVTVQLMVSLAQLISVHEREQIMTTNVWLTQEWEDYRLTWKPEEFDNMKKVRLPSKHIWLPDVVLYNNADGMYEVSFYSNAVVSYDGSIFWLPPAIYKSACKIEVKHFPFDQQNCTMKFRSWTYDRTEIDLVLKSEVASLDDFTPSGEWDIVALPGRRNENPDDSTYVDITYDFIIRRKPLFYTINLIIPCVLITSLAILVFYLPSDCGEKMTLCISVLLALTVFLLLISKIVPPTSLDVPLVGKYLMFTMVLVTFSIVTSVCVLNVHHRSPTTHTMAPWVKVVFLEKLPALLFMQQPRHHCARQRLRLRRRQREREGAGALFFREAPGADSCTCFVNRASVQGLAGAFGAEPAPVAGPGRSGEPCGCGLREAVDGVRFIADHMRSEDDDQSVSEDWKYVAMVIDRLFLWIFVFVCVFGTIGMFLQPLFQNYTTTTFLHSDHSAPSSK
T5 sequence (P43681 whole entry): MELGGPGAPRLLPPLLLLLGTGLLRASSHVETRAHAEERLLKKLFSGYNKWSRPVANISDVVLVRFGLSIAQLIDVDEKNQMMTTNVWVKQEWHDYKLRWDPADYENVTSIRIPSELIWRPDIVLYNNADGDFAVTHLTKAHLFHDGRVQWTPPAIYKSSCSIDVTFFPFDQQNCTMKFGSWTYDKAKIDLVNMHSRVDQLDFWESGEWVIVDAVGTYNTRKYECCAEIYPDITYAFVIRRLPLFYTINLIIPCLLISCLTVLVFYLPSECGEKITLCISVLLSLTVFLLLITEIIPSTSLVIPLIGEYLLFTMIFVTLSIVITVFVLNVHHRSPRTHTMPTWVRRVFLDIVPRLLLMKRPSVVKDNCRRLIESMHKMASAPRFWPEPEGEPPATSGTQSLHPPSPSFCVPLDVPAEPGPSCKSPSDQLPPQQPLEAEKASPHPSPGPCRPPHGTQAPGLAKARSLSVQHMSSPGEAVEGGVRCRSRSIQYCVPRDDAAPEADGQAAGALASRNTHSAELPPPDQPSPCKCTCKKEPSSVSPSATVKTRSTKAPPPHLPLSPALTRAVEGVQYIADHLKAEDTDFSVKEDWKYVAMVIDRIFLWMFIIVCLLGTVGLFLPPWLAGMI

[9] = molecular target: T5, Neuronal acetylcholine receptor; alpha4/beta2; test: Activation responses to that evoked by ACh at human Nicotinic acetylcholine receptor alpha4-beta2 expressed in xenopus oocytes at 300 uM; assay type: cell-based; details: Oocyte
[10] = molecular target: T5, Neuronal acetylcholine receptor; alpha4/beta2; test: Antagonism of ACh response at Nicotinic acetylcholine receptor alpha4-beta2 expressed in xenopus oocytes; assay type: functional, cell-based, Oocyte
[11] = molecular target: T1, 5-hydroxytryptamine receptor 3A (Rattus norvegicus); test: Effect on rat 5-hydroxytryptamine 3a receptor expressed in xenopus oocytes at concentration up to 100 uM; assay type: functional, cell-based; details: Oocyte
[12] = molecular target: T3, Neuronal acetylcholine receptor subunit alpha-7; test: Inhibition of the response to ACh when coapplied with Nicotinic acetylcholine receptor alpha7
[13] = molecular target: T2, Neuronal acetylcholine receptor; alpha3/beta4; test: Responses to that evoked by Nicotinic acetylcholine receptor alpha3-beta4 expressed in xenopus oocytes up to 1 mM; assay type: cell-based; details: Oocyte
[14] = molecular target: T4, Neuronal acetylcholine receptor; alpha3/beta2 (Homo sapiens); test: Responses to that evoked by Nicotinic acetylcholine receptor alpha3-beta2 expressed in xenopus oocytes up to 1 mM; assay type: cell-based; details: Oocyte
Oocyte [15] = test: Antagonism of ACh response at Nicotinic acetylcholine receptor alpha-3-beta-2-alpha-5 receptor expressed in xenopus oocytes up to 1 mM; assay type: functional, cell-based; details: Homo sapiens
[16] = molecular target: T5, Neuronal acetylcholine receptor; alpha4/beta2; test: Responses to that evoked by ACh at human Nicotinic acetylcholine receptor alpha4-beta2 expressed in xenopus oocytes up to 1 mM; assay type: cell-based; details: Oocyte

SMILES: O=C1NC[C@@]2(CN3CCC2CC3)O1
- Effect [1]: inactive
- Activation [2]: inactive
- IC50 [3]: > 1000 µM
- EC50 [4]: 380 nM
- Activation (Oocyte [5]): 3%
- Activation [6]: 2%
- Activation [7]: 1%
- Activation [8]: 2%
- Activation [9]: 1%
- IC50 [10]: > 2000 µM
- Effect [11]: inactive

SMILES: Cc1nccn1CC1CCc2c(c3ccccc3n2C)C1=O (stereo not drawn) [ONDANSETRON]
- IC50 [12]: 25 µM
- Effect ([13]; filed as antagonist): Antagonist
- IC50 [3]: 27 µM
- Effect [14]: inactive
- Effect (Oocyte [15]): inactive
- Effect ([16]; filed as antagonist): Antagonist
- IC50 [10]: 66 µM

SMILES: CN1[C@@H]2CC[C@H]1C[C@@H](OC(=O)c1c[nH]c3ccccc13)C2 [TROPISETRON]
- Effect [13]: inactive
- Effect [14]: inactive
- Effect (Oocyte [15]): inactive
- Effect [16]: inactive
- IC50 [10]: 170 µM
